Experimental data published in publication PMC6151437, “Antibacterial Synthetic Peptides Derived from Bovine Lactoferricin Exhibit Cytotoxic Effect against MDA-MB-468 and MDA-MB-231 Breast Cancer Cell Lines” (Molecules : A Journal of Synthetic Chemistry and Natural …, 2017).
≈ marks a conversion by molar mass, not a printed value. Where two headings read alike, the source gives them in different places. Bridge positions count the residues as written; N and C are the ends. Square brackets hold non-standard residues; d marks the D form. Ends that are not written are not given here. Peptide text beside a SMILES is read from it. I, II: the chains in the order shown. Ahx = NCCCCCC(=O)O

Columns and labels:
E. coli ATCC 11775 [1] = type: cell-based
Method: (§1) The minimal inhibitory concentration (MIC) was determined using a microdilution assay. In brief, bacterial strains were incubated for 18 to 24 h at 37 °C in an Muller Hinton broth (MHB) until an optical density of 0.15 to 0.30 (620 nm) was obtained. 90 µL of MHB was mixed with 90 µL of peptide (440 µg/mL), and using a 96-well microtiter plate peptide, serial dilution (200, 100, 50, 25, 12.5, and 6.2 µg/mL) was performed. 10 µL of inoculum (2 × 10^6 CFU/mL) was added to each well. Final volume in each well was 100 µL. Then they were incubated for 24 h at 37 °C, and the absorbance at 620 nm was measured using an Asys Expert Plus ELISA reader. For determining the minimum bactericidal concentration (MBC), a small sample was taken from each well using an inoculation loop, which was then spread on MHA plates and incubated overnight at 37 °C. […] Each of these tests was performed twice (n = 2).

E. coli ATCC 25922 [2] = type: cell-based
Method: as §1

[3] = type: cell-based, human
Method: (§2) Cytotoxicity assays were performed as previously described. Briefly, breast cancer cell lines (100 µL; 2.5 × 10^3 cells/well) were seeded in 96-well flat bottom tissue culture treated plates and were incubated at 37 °C in a 10% CO2 humidified atmosphere for 24 h, allowing for cell adhesion. Then the media was removed, then 100 µL of FBS (5%) and 100 µL of peptide were added. The peptide final concentration was ranging from 200 to 6.25 µg/mL and the final FBS concentration was 2.5%. Plates were incubated 2 h at 37 °C in a 10% CO2 humidified atmosphere (physiologic pH). Negative controls included medium and water. All controls were prepared in triplicate. Cell viability was determined using the MTT assay after 2 h. For this, 10 µL of MTT solution (5 mg/mL) was added to each well, and the plates were incubated for 2 h at 37 °C. Formazan crystals were clarified by centrifugation, the supernatant was discarded, and the crystals were dissolved in DMSO (100 µL). Absorbance (570 nm) was registered on a Bio-Rad 680 microplate reader. (n = 3).

E. coli = test system: E. coli; parameters: method as in ref 15, 25, 26 = [15]; PMID 25815317; doi:10.1155/2015/453826; 15. León M.A. Leal A.L. Almanzar G. Rosas J.E. García J.E. Rivera Z.J. Antibacterial activity of synthetic peptides derived from Lactoferricin against Escherichia coli ATCC 25922 and Enterococcus faec || [25]; PMID 28613262; doi:10.3390/molecules22060987; 25. Huertas N.J. Monroy Z.J.R. Medina R.F. Castañeda J.E.G. Antimicrobial Activity of Truncated and Polyvalent Peptides Derived from the […] Sequence against Escherichia coli ATCC 25922 an || [26]; PMID 28287494; doi:10.3390/molecules22030452; 26. Huertas Méndez N.J. Vargas Casanova Y. Gómez Chimbi A.K. Hernández E. Leal Castro A.L. Melo Diaz J.M. Rivera Monroy Z.J. García Castañeda J.E. Synthetic Peptides Derived from Bovine Lactoferricin; conditions: first of three values given 'respectively', strain not distinguished; cited from earlier work
[4] = test system: S. enteriditis ATCC 13076; parameters: method as in ref 15, 25, 26 = [15]; PMID 25815317; doi:10.1155/2015/453826; 15. León M.A. Leal A.L. Almanzar G. Rosas J.E. García J.E. Rivera Z.J. Antibacterial activity of synthetic peptides derived from Lactoferricin against Escherichia coli ATCC 25922 and Enterococcus faec || [25]; PMID 28613262; doi:10.3390/molecules22060987; 25. Huertas N.J. Monroy Z.J.R. Medina R.F. Castañeda J.E.G. Antimicrobial Activity of Truncated and Polyvalent Peptides Derived from the FKCRRWQWRMKKGLA Sequence against Escherichia coli ATCC 25922 an || [26]; PMID 28287494; doi:10.3390/molecules22030452; 26. Huertas Méndez N.J. Vargas Casanova Y. Gómez Chimbi A.K. Hernández E. Leal Castro A.L. Melo Diaz J.M. Rivera Monroy Z.J. García Castañeda J.E. Synthetic Peptides Derived from Bovine Lactoferricin; conditions: cited from earlier work
S. aureus ATCC 25923 = test system: S. aureus ATCC 25923; parameters: method as in ref 15, 25, 26 = [15]; PMID 25815317; doi:10.1155/2015/453826; 15. León M.A. Leal A.L. Almanzar G. Rosas J.E. García J.E. Rivera Z.J. Antibacterial activity of synthetic peptides derived from Lactoferricin against Escherichia coli ATCC 25922 and Enterococcus faec || [25]; PMID 28613262; doi:10.3390/molecules22060987; 25. Huertas N.J. Monroy Z.J.R. Medina R.F. Castañeda J.E.G. Antimicrobial Activity of Truncated and Polyvalent Peptides Derived from the FKCRRWQWRMKKGLA Sequence against Escherichia coli ATCC 25922 an || [26]; PMID 28287494; doi:10.3390/molecules22030452; 26. Huertas Méndez N.J. Vargas Casanova Y. Gómez Chimbi A.K. Hernández E. Leal Castro A.L. Melo Diaz J.M. Rivera Monroy Z.J. García Castañeda J.E. Synthetic Peptides Derived from Bovine Lactoferricin; conditions: cited from earlier work
E. coli ATCC 11775 [5] = test system: E. coli ATCC 11775; parameters: method as in ref 15, 25, 26 = [15]; PMID 25815317; doi:10.1155/2015/453826; 15. León M.A. Leal A.L. Almanzar G. Rosas J.E. García J.E. Rivera Z.J. Antibacterial activity of synthetic peptides derived from Lactoferricin against Escherichia coli ATCC 25922 and Enterococcus faec || [25]; PMID 28613262; doi:10.3390/molecules22060987; 25. Huertas N.J. Monroy Z.J.R. Medina R.F. Castañeda J.E.G. Antimicrobial Activity of Truncated and Polyvalent Peptides Derived from the FKCRRWQWRMKKGLA Sequence against Escherichia coli ATCC 25922 an || [26]; PMID 28287494; doi:10.3390/molecules22030452; 26. Huertas Méndez N.J. Vargas Casanova Y. Gómez Chimbi A.K. Hernández E. Leal Castro A.L. Melo Diaz J.M. Rivera Monroy Z.J. García Castañeda J.E. Synthetic Peptides Derived from Bovine Lactoferricin; conditions: cited from earlier work
E. coli ATCC 25922 [6] = test system: E. coli ATCC 25922; parameters: method as in ref 15, 25, 26 = [15]; PMID 25815317; doi:10.1155/2015/453826; 15. León M.A. Leal A.L. Almanzar G. Rosas J.E. García J.E. Rivera Z.J. Antibacterial activity of synthetic peptides derived from Lactoferricin against Escherichia coli ATCC 25922 and Enterococcus faec || [25]; PMID 28613262; doi:10.3390/molecules22060987; 25. Huertas N.J. Monroy Z.J.R. Medina R.F. Castañeda J.E.G. Antimicrobial Activity of Truncated and Polyvalent Peptides Derived from the FKCRRWQWRMKKGLA Sequence against Escherichia coli ATCC 25922 an || [26]; PMID 28287494; doi:10.3390/molecules22030452; 26. Huertas Méndez N.J. Vargas Casanova Y. Gómez Chimbi A.K. Hernández E. Leal Castro A.L. Melo Diaz J.M. Rivera Monroy Z.J. García Castañeda J.E. Synthetic Peptides Derived from Bovine Lactoferricin; conditions: cited from earlier work
[7] = type: cell-based, human; remark: listed apart in the source
Method: as §2

[8] = test system: human gastric cancer cell line AGS; conditions: cited from earlier work
[9] = test system: breast cancer cell line MDA-MB-231; conditions: even at the highest tested concentration (40 µM); cited from earlier work
Method: For the second part of the experiments, all members of each designed peptide family were tested against MDA-MB-468 and MDA-MB-231 breast cancer cell lines (Figure 3). […] When breast cancer cells lines were incubated with linear peptides or cyclic peptides (200 µg/mL), their viability was approximately 80%.

[10] = E. coli ATCC 11775, microdilution in MHB, 24 h at 37 °C, absorbance 620 nm, n = 2
[11] = E. coli ATCC 11775, plated on MHA overnight at 37 °C, no bacterial growth, n = 2
[12] = E. coli ATCC 25922, microdilution in MHB, 24 h at 37 °C, absorbance 620 nm, n = 2
[13] = E. coli ATCC 25922, plated on MHA overnight at 37 °C, no bacterial growth, n = 2

Compound	Antibacterial Effect MBC (E. coli ATCC 11775 [1]; ATCC 11775) [µM]	Antibacterial Effect MIC (E. coli ATCC 11775 [1]; ATCC 11775, 24 h) [µM]	Antibacterial Effect MIC (E. coli ATCC 11775 [1]; [10]) [µg/mL]	Antibacterial Effect MBC (E. coli ATCC 11775 [1]; [11]) [µg/mL]	Antibacterial Effect MBC (E. coli ATCC 25922 [2]; ATCC 25922) [µM]	Antibacterial Effect MIC (E. coli ATCC 25922 [2]; ATCC 25922, 24 h) [µM]	Antibacterial Effect MIC (E. coli ATCC 25922 [2]; [12]) [µg/mL]	Antibacterial Effect MBC (E. coli ATCC 25922 [2]; [13]) [µg/mL]	IC50 at 2 h ([3]; human) [µM]	MIC (E. coli) [µM]	MIC [4] [µM]	MIC (S. aureus ATCC 25923) [µM]	MIC (E. coli ATCC 11775 [5]) [µM]	MIC (E. coli ATCC 25922 [6]) [µM]	IC50 [3] [µM]	IC50 [7] [µM]	IC50 [8] [µM]	cytotoxic activity (in words) [9]
N=C(N)NCCC[C@H](NC(=O)[C@H](Cc1c[nH]c2ccccc12)NC(=O)[C@H](CCC(N)=O)NC(=O)[C@H](Cc1c[nH]c2ccccc12)NC(=O)[C@H](CCCNC(=N)N)NC(=O)[C@@H](N)CCCNC(=N)N)C(=O)NCCCC[C@H](NC(=O)[C@H](CCCNC(=N)N)NC(=O)[C@H](Cc1c[nH]c2ccccc12)NC(=O)[C@H](CCC(N)=O)NC(=O)[C@H](Cc1c[nH]c2ccccc12)NC(=O)[C@H](CCCNC(=N)N)NC(=O)[C@@H](N)CCCNC(=N)N)C(=O)NCCCCCC(N)=O [LfcinB (20–25)2] (I: H-RRWQWRK[Ahx]-NH2 / II: H-RRWQWR; amide I:7-II:C)	22	22	50	50	11	6	12.5	25	> 100	2.8 (≈ 6.15 µg/mL)	22.4 (≈ 49.2 µg/mL)	5.6 (≈ 12.3 µg/mL)	–	–	–	–	–	–
N=C(N)NCCC[C@H](NC(=O)[C@H](Cc1c[nH]c2ccccc12)NC(=O)[C@H](CCC(N)=O)NC(=O)[C@H](Cc1c[nH]c2ccccc12)NC(=O)[C@H](CCCNC(=N)N)NC(=O)[C@@H](N)CCCNC(=N)N)C(=O)NCCCC[C@H](NC(=O)[C@H](CCCNC(=N)N)NC(=O)[C@H](Cc1c[nH]c2ccccc12)NC(=O)[C@H](CCC(N)=O)NC(=O)[C@H](Cc1c[nH]c2ccccc12)NC(=O)[C@H](CCCNC(=N)N)NC(=O)[C@@H](N)CCCNC(=N)N)C(=O)NCCCCCC(=O)N[C@@H](CSSC[C@H](NC(=O)CCCCCNC(=O)[C@H](CCCCNC(=O)[C@H](CCCNC(=N)N)NC(=O)[C@H](Cc1c[nH]c2ccccc12)NC(=O)[C@H](CCC(N)=O)NC(=O)[C@H](Cc1c[nH]c2ccccc12)NC(=O)[C@H](CCCNC(=N)N)NC(=O)[C@@H](N)CCCNC(=N)N)NC(=O)[C@H](CCCNC(=N)N)NC(=O)[C@H](Cc1c[nH]c2ccccc12)NC(=O)[C@H](CCC(N)=O)NC(=O)[C@H](Cc1c[nH]c2ccccc12)NC(=O)[C@H](CCCNC(=N)N)NC(=O)[C@@H](N)CCCNC(=N)N)C(N)=O)C(N)=O [LfcinB (20–25)4] (I: H-RRWQWRK[Ahx]C-NH2 / II: H-RRWQWRK[Ahx]C-NH2 / III: H-RRWQWR / IV: H-RRWQWR; amide I:7-III:C, II:7-IV:C; disulfide I:9-II:9)	44	22	100	200	22	22	100	100	–	–	44 (≈ 202 µg/mL)	25 (≈ 115 µg/mL)	5.5 (≈ 25.3 µg/mL)	4.4 (≈ 20.2 µg/mL)	–	–	–	–
RRWQWR-NH2 [LfcinB (20–25)]	203	203	–	–	203	203	–	–	–	–	–	–	–	–	> 203	> 203	> 500	weak cytotoxic activity
